# Assay results taken from publication PMC10868801, “Characterization of covalent inhibitors that disrupt the interaction between the tandem SH2 domains of SYK and FCER1G phospho-ITAM” (PLOS ONE, 2024).
# Read-outs that look alike come from different tables or passages of the source. Non-standard residues stand in square brackets, D forms with d. Residues, ends and D or L forms follow the SMILES beside them. Primed or numbered codes have the meaning given here. No end group written: not given here. pY = N[C@@H](Cc1ccc(OP(=O)(O)O)cc1)C(=O)O; FITC′ = not defined here
# Experiments:
# SH-SY5Y cells = test system: SH-SY5Y cells; parameters: method as in PMID 31324720; conditions: 5 μM, cited from earlier work
# [1] = test system: primary neuron-glia cultures; parameters: method as in PMID 37009452; conditions: cited from earlier work
# Tg Tau P301S mice = conditions: cited from earlier work
# [2] = molecular target: T1, SYK-tSH2 / FCER1G p-ITAM interaction (Homo sapiens, UniProt P43405); experiment: TR-FRET assay of 6xHis-SYK-tSH2 with FITC-labeled FCER1G p-ITAM peptide; format: biochemical
# T1 construct: the tSH2 domain of SYK (residues M6-N269) fused to an N-terminal 6×His tag; made in house; host or cells: E. coli BL21(DE3)-R3-pRARE
# Excerpt: To facilitate identification of inhibitors of the SYK-FCER1G interaction, we developed a TR-FRET assay using recombinant protein comprising the tSH2 domain of SYK (residues M6-N269) fused to an N-terminal 6×His tag (S1A Fig). The TR-FRET assay is based on the interaction of a FITC-labeled FCER1G p-ITAM peptide to the 6×His-SYK-tSH2 protein in complex with a terbium-conjugated anti-His antibody (Tb-Ab) (Fig 3B). Once excited, a TR-FRET signal is generated from the Tb donor to the FITC acceptor fluorophore. […] To enable uHTS for large scale screening of small molecule libraries, we miniaturized the TR-FRET assay from 96-well plate format to a 1536-well.
# TR-FRET experiments were performed in 20 μL reactions, using 384-well shallow-well microplates (PerkinElmer). Final reaction components contained 6xHis-SYK-tSH2 (SYKA-c020 tagged) (4 nM), FITC-conjugated FCER1G peptide (8 nM), Tb-conjugated anti-6xHis antibody (53 ng/ml; Cisbio) in assay buffer containing 25 mM HEPES (pH 7.5), 200 mM NaCl, 0.1% BSA and 0.05% Tween-20. After a 2h incubation (at room temperature), TR-FRET signals were measured on a BMG Labtech PHERAstar FSX reader using a Lanthascreen Optics Module. A 200 μs delay was used after excitation with a flash lamp before measurement of fluorescence emission at […]. TR-FRET ratios of fluorescent intensity at 520 nm to 490 nm were calculated. The half maximal inhibitory concentration (IC50) was determined by fitting a four parametric logistic curve to the data.
# MSN = MSN (Homo sapiens, UniProt P26038); experiment: Covalent labelling and intact mass spectrometry (selectivity); conditions: 100 μM, 1 h, room temperature; four available cysteines
# [3] = Compound solubility with nephelometer; format: physicochemical; conditions: aqueous buffer, kinetic from dmso stock, PBS, 90 min at room temperature
# Experimental: Stock compound (10 mM in DMSO) was serial diluted in PBS (21-040-CV, Corning) in 96-well Costar Assay plate (3904, Corning). After incubating compound in PBS for 90 min at room temperature, the Nephelometric turbidity units (NTUs) were measured with NEPHELOstar (BMG LABTECH, Cary, North Carolina). 0.2 s was used for a measure time and PBS only as the background. Each sample was tested in triplicate. Dose-response data was analyzed by GraphPad Prism and the solubility concentration is defined at the concentration that increases the NTUs at the turning point of the curve.
# [4] = molecular target: T2, full length SYK and FCER1G (Homo sapiens, UniProt P43405); experiment: GST pull-down (GST-PD) of GST-SYK and FCER1G-Flag from HEK293T cell lysates; format: biochemical; conditions: for PPI disruption in GST-PD: dose-response format; for Inhibition of SYK-GST / FCER1G-Flag interaction in pulldown: single concentration (100 μM)
# T2 construct: full length GST-SYK and FCER1G-Flag were co-expressed in HEK293 cells prior to lysis; expressed in transfected cells; host or cells: HEK293T (CRL-3216, ATCC)
# Experimental: Pull-down assays were used as an orthogonal assay to determine if the compounds could disrupt the PPI between full length SYK and FCER1G proteins from cell lysates. To optimize GST pulldown assays, full length GST-SYK and FCER1G-Flag were co-expressed in HEK293 cells prior to lysis and the protein expression and cell lysate concentrations tested (Fig 4A). All 40 compounds that progressed from uHTS were tested via GST-PD at a single concentration (100 μM) to determine if they could inhibit the PPI between the full-length proteins, with the p-ITAM FCER1G peptide used as a positive control (Fig 4B). […] Compound 24 contains a promiscuous maleimide, which is well known to react indiscriminately with proteins.
# GST-, VF-tagged human SYK and FCER1G plasmids for mammalian expression were generated using Gateway cloning technology (Invitrogen) as described previously. The DNA was purified using ZymoPURE Plasmid Maxiprep Kit (D4203, Zymo Research).
# WB secondary antibodies: peroxidase-conjugated AffiniPure Goat Anti-Mouse IgG (H+L) (115-035-003, Jackson Immuno Research) 1:5000 dilution in TBST. GST pulldown was performed as described with minor changes. HEK293T (CRL-3216, ATCC) were cultured in Dulbecco’s modified Eagle’s medium with 4.5 g/L glucose, L-glutamine, and sodium pyruvate (10–013-CV, Corning) supplemented with 10% fetal bovine serum and 1% penicillin/streptomycin solution (30–002-CI, CellGro). Cells were incubated at 37°C in humidified conditions with 5% CO2. The HEK293T cells were transfected using 1 mg/mL Polyethylenimine (PEI; 23966, Polysciences) in a ratio of 3 μL to 1 μg DNA. The proteins were expressed for 48 h at 37°C. Cell pellets were re-suspended in the SYK lysis buffer (25 mM HEPES, pH 7.5, 200 mM NaCl, 0.5% Triton X100 (T9284-1L, Sigma-Aldrich), followed by sonication for 10 s (5 s on, 5 s off) at 4°C. Cells were pelleted by 10 min centrifugation at 13,000 rpm at 4°C. The cleared lysates were first pre-incubated with compounds for 30 min and then incubated with glutathione sepharose 4B beads (17075605, Cytiva Sweden AB) at 4°C for 2 h with rotation. After the incubation, beads were washed three times with the SYK lysis buffer, eluted by boiling in sodium dodecyl sulfate-polyacrylamide gel electrophoresis (SDS–PAGE) loading buffer (1610737, Bio-Rad), and analyzed by western blotting.
# SYK-tSH2 [5] = molecular target: T3, SYK-tSH2 (Homo sapiens, UniProt P43405); experiment: Covalent labelling and intact mass spectrometry; format: binding; parameters: tandem SH2 domains of human SYK (residues M6-N269); 6xHis (N, cleaved yes); made in house; host or cells: E. coli BL21(DE3)-R3-pRARE; conditions: 100 μM, 1 h; for Number of mass adducts on SYK-tSH2: room temperature
# Excerpt: The HTS hits 13 and 37 contain a kojic acid moiety, which is proposed to react covalently with proteins in the literature. As a result, we thought that it was likely these compounds are also reacting covalently with SYK-tSH2. […] When bound to the protein, these kojic acid-derived compounds have a 94 Da decrease in mass due to the loss of the pyridin-2-amine leaving group to reveal a Michael acceptor that can react covalently with cysteine residues (Fig 5B).
# To expand on the initial 40 putative hits that were identified via uHTS (Fig 3D), additional commercially available structural analogues were ordered and screened via TR-FRET and differential scanning fluorimetry (DSF) (S1 Table). […] The observation of a substantial reduction in protein melting temperature motivated us to determine if the compounds interacted covalently with the SYK-tSH2 domains. Additionally, since the thiourea in these small molecules is reported to react via oxidation, the compounds could be capable of forming a covalent disulfide bond with cysteine residues on SYK [39]. We used compound 1, which is a known covalent modifier of SYK-tSH2, as a positive control in the mass spectrometry analysis. […] Literature reports support that this type of chemical reaction can occur in DMSO, forming a disulfide bond. […] Like we had originally observed for the older DMSO stock solution of 42 (Fig 6C), 44 forms two to four mass adducts (422 Da and 844 Da) more than the protein mass when incubated SYK-tSH2 for 1 h (Fig 6D). […] Due to the mass adducts of two to four (422 Da and 844 Da), we propose that 44 is forming a disulfide bond with between two or four cysteines on SYK-tSH2 (Fig 6G).
# SYK-tSH2 [6] = molecular target: T3, SYK-tSH2; experiment: Bio-layer interferometry (BLI) direct binding; conditions: biotinylated SYK-tSH2
# [7] = LCMS characterization of fresh versus older DMSO stocks; format: physicochemical; conditions: older DMSO stocks versus freshly prepared solutions
# Excerpt: To expand on the initial 40 putative hits that were identified via uHTS (Fig 3D), additional commercially available structural analogues were ordered and screened via TR-FRET and differential scanning fluorimetry (DSF) (S1 Table). […] The observation of a substantial reduction in protein melting temperature motivated us to determine if the compounds interacted covalently with the SYK-tSH2 domains. Additionally, since the thiourea in these small molecules is reported to react via oxidation, the compounds could be capable of forming a covalent disulfide bond with cysteine residues on SYK [39]. We used compound 1, which is a known covalent modifier of SYK-tSH2, as a positive control in the mass spectrometry analysis. […] Literature reports support that this type of chemical reaction can occur in DMSO, forming a disulfide bond. […]
# Supplementary file pone.0293548.s005.tiff: S4 Fig Identification of active disulfide compounds which form in DMSO solutions of compounds 42 and 43. […] LCMS Calculated for [M+H]^+ C7H9N4O2S: 213.04; observed: 213.1 [M+H]^+. […] LCMS Calculated for [M+H]^+ C14H15N8O4S2: 423.06; observed: 423.0 [M+H]^+. […] LCMS Calculated for [M+H]^+ C10H15N4O2S: 255.08; observed: 255.1 [M+H]^+. […] LCMS Calculated for [M+H]^+ C20H27N8O4S2: 507.15; observed: 507.1 [M+H]^+. […]
# [8] = molecular target: 6xHis-SYK-tSH2 (tandem SH2 domains of human SYK, residues M6-N269, SYKA-c020 tagged) (human) (UniProt P43405); experiment: AlphaScreen or HTRF; TR-FRET competition: 6xHis-SYK-tSH2 4 nM with Tb-conjugated anti-6xHis antibody, FITC-conjugated FCER1G peptide 8 nM, unlabeled peptide titrated; 25 mM HEPES pH 7.5, 200 mM NaCl, 0.1% BSA, 0.05% Tween-20; 2 h at room temperature
# [9] = competition of FITC-labeled FCER1G p-ITAM peptide by unlabeled peptide
# Chain of MSN (P26038 whole entry, species assumed): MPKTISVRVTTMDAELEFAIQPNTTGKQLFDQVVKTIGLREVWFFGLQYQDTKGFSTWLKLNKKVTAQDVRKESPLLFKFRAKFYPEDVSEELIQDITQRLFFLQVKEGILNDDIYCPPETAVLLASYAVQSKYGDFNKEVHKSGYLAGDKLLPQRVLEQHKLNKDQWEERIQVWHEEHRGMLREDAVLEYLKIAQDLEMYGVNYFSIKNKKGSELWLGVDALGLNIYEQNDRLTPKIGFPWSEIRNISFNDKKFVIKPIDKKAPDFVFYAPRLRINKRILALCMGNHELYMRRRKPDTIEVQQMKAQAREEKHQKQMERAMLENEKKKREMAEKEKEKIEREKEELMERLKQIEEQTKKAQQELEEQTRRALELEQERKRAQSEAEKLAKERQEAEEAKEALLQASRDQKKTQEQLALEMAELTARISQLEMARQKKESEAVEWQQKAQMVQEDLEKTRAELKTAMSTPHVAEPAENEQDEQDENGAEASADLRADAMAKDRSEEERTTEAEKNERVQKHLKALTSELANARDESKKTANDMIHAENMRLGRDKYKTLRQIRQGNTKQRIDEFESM
molecule,measurement,setting,value
"COc1ccc(-c2cc3nccn3c(Nc3ncccc3C(N)=O)n2)cc1OC.Cl.Cl [BAY61-3606, 2-[7-(3,4-Dimethoxyphenyl)-imidazo[1,2-c]pyrimidin-5-ylamino]nicotinamide Dihydrochloride]","p-AKT, p-mTOR and p-p70 S6K levels",SH-SY5Y cells,"reduces p-AKT, p-mTOR, and p-p70 S6K levels"
same,Phosphorylated and total tau levels,SH-SY5Y cells; in vitro,reduces phosphorylated and total tau levels
same,Microglial-mediated phagocytosis of synapses and neurons,[1],reduced microglial-mediated phagocytosis of synapses and neurons
same,LPS-induced neuronal loss,[1]; primary neuron-glia cultures,prevented lipopolysaccharide (LPS)-induced neuronal loss
same,Levels of phospho-tau and total tau,"Tg Tau P301S mice; Tg Tau P301S mice, 20 mg/kg, 12 weeks",reduced levels of phospho-tau (p-tau) and total tau (t-tau)
same,Effect in mouse tauopathy models,Tg Tau P301S mice; mouse tauopathy models,"decreased tau accumulation, neuronal and synaptic loss, neuroinflammation, and reversed defective autophagy"
CC(C)C[C@H](NC(=O)CNC(=O)[C@@H](NC(=O)[C@H](Cc1ccc(OP(=O)(O)O)cc1)NC(=O)[C@@H](NC(=O)CNC(=O)[C@@H](N)CC(=O)O)C(C)C)[C@@H](C)O)C(=O)N[C@@H](CO)C(=O)N[C@H](C(=O)N[C@@H](CCCNC(=N)N)C(=O)N[C@@H](CC(N)=O)C(=O)N[C@@H](CCC(N)=O)C(=O)N[C@@H](CCC(=O)O)C(=O)N[C@H](C(=O)N[C@@H](Cc1ccc(OP(=O)(O)O)cc1)C(=O)N[C@@H](CCC(=O)O)C(=O)N[C@H](C(=O)N[C@@H](CC(C)C)C(=O)N[C@@H](CCCCN)C(=O)N[C@@H](Cc1c[nH]cn1)C(=O)O)[C@@H](C)O)[C@@H](C)O)[C@@H](C)O [FCER1G p-ITAM peptide] (H-DGV[pY]TGLSTRNQET[pY]ETLKH-OH),IC50,[2]; [9],12 nM
O=c1cc(CO)oc(C(Nc2ccccn2)c2ccc(F)cc2)c1O (stereo not drawn) [compound 13],Number of mass adducts on MSN,MSN,one weak mass adduct
same,solubility at 90 min,[3],100 µM
same,PPI disruption in GST-PD,[4],confirmed to disrupt the PPI
same,Inhibition of SYK-GST / FCER1G-Flag interaction in pulldown,[4],able to inhibit the interaction
same,Number of mass adducts on SYK-tSH2,SYK-tSH2 [5],between one and five
O=C1C=CC(=O)N1c1ccc(Sc2ccc(N3C(=O)C=CC3=O)cc2)cc1 [compound 24],PPI disruption in GST-PD,[4],confirmed to disrupt the PPI
same,Inhibition of SYK-GST / FCER1G-Flag interaction in pulldown,[4],able to inhibit the interaction
O=c1cc(CO)oc(C(Nc2ccccn2)c2ccc3c(c2)OCO3)c1O (stereo not drawn) [compound 37],Number of mass adducts on MSN,MSN,one weak mass adduct
same,solubility at 90 min,[3],100 µM
same,PPI disruption in GST-PD,[4],confirmed to disrupt the PPI
same,Inhibition of SYK-GST / FCER1G-Flag interaction in pulldown,[4],able to inhibit the interaction
same,Number of mass adducts on SYK-tSH2,SYK-tSH2 [5],between two and seven
CC(C)n1c(S)nc2c1c(=O)n(C)c(=O)n2C [compound 43],BLI KD,SYK-tSH2 [6],did not bind
same,Kd,SYK-tSH2 [6]; read-out: BLI KD,> 100 µM
same,Stability in DMSO stock solution,[7],had formed corresponding disulfide dimers in DMSO over time
same,IC50,[2],3000 ± 1700 nM
same,Covalent modification of SYK-tSH2,SYK-tSH2 [5]; older DMSO stock solutions,did not demonstrate covalent attachment
FCER1G-nonphospho-ITAM[62–81]-FITC (peptide),IC50,[8],> 1000 nM
FCER1G-phospho-ITAM[62–81] (peptide),IC50,[8],12 nM
non-phosphorylated FCER1G ITAM peptide: non-phosphorylated FCER1G ITAM peptide used as control (DGVYTGLSTRNQETYETLKH-{FITC′}),IC50,[2]; [9],> 1000 nM
